Earlier results on one compound are cited in patent publication US6365128B1, “Monitoring gastrointestinal function to guide care of high risk patients” (Medical Defence Technologies, LLC, priority 1998, dated 2002).

Each structure is given as a SMILES string.

The conditions of this series: in vivo.

Regarding `CSCC[C@H](NC(=O)[C@H](Cc1c[nH]c2ccccc12)NC(=O)CCNC(=O)OC(C)(C)C)C(=O)N[C@@H](CC(=O)O)C(=O)N[C@@H](Cc1ccccc1)C(N)=O` [Pentagastrin, pentagastrin], the half life result is on record as “approximately 10 minutes”.
